The NIST ThermoML archive (doi:10.1016/j.jct.2015.04.029)

Experiment: wn = mass fraction of the nth substance listed
Conditions: for surface tension liquid-gas: Maximal bubble pressure; for mass density: 100 kPa, Liquid, Vibrating tube method

CCC[n+]1ccn(C)c1.N[C@@H](CO)C(=O)[O-] [1-methyl-3-propylimidazolium L-serinate] + O
Conditions | mass density, w2 = 0.00636 [kg/m3] | mass density, w2 = 0.00785 [kg/m3] | mass density, w2 = 0.00939 [kg/m3] | mass density, w2 = 0.0109 [kg/m3] | mass density, w2 = 0.0124 [kg/m3] | surface tension liquid-gas, w2 = 0.00641 [mN/m] | surface tension liquid-gas, w2 = 0.00791 [mN/m] | surface tension liquid-gas, w2 = 0.00942 [mN/m] | surface tension liquid-gas, w2 = 0.01091 [mN/m] | surface tension liquid-gas, w2 = 0.01241 [mN/m]
308.15 K | 1175.36 | 1175.39 | 1175.43 | 1175.47 | 1175.52 | – | – | 50.9 | 51.8 | 52.5
313.15 K | 1172.21 | 1172.24 | 1172.29 | 1172.33 | 1172.37 | 49.2 | 49.9 | 50.5 | 51.4 | 52
318.15 K | 1169.06 | 1169.09 | 1169.13 | 1169.18 | 1169.22 | 48.8 | 49.5 | 50.1 | 50.9 | 51.6
323.15 K | 1165.86 | 1165.89 | 1165.94 | 1165.98 | 1166.03 | 48.5 | 49.2 | 49.8 | 50.6 | 51.2
328.15 K | 1162.76 | 1162.79 | 1162.83 | 1162.87 | 1162.91 | 48.2 | 48.8 | 49.5 | 50.2 | 50.8
333.15 K | 1159.67 | 1159.7 | 1159.74 | 1159.79 | 1159.83 | 47.8 | 48.5 | 49.1 | 49.7 | 50.4
338.15 K | 1156.58 | 1156.62 | 1156.65 | 1156.69 | 1156.73 | 47.5 | 48.2 | 48.7 | 49.3 | 50
